{"source": "patent US6794491B1", "about": "“Polypeptides, their production and use” (Takeda Chemical Industries, Ltd., priority 1995, dated 2004)", "key": {"[1]": {"test": "glucose-induced increase in plasma insulin concentration", "type": "in vivo, Male Wistar rats", "settings": "bolus injection in the jugular vein with glucose 86 mg/rat", "method": "Male Wistar rats (8-10w) were anesthetized by i.p. injection of pentobarbital (65 mg/kg). Glucose alone (86 mg/rat) or glucose and 19P2-L31 (675 pmol, 2.25 nmol, 6.75 nmol and 67.5 nmol/rat) were administered by bolus injection in the jugular vein. Blood samples were withdrawn from the contralateral vein. Plasma insulin concentration was determined with a radioimnunoassay kit (Amersham)."}, "[2]": {"test": "plasma pituitary hormone level after administration into the third ventricle, pentobarbital anesthesia", "type": "in vivo, male Wistar rats", "method": "The inventors explored the effect of 19P2-L31 administered into the third ventricle on pituitary hormone levels in the plasma. Mature male Wistar rats (body weights at operation: 290-350 g) were anesthetized with pentobarbital, 50 mg/kg i.p., and each immobilized in a rat brain stereotaxic apparatus. The incisor bar was set 3.3 mm lower from the interaural line. The skull was exposed, and using a dental drill a hole was made on the bone for implantation of a guide cannula. In addition, an anchor screw was buried in one position around the hole. A stainless-steel guide cannula, AG-12 (0.4 mm in. dia., 0.5 mm out. dia., EICOM), was inserted in such a manner that its tip would be situated in the upper part of the third ventricle. With reference to the atlas of Paxinos and Watson (1986), the stereotaxic coordinates were AP: +7.2 mm (from interaural line), L: 0.0 mm, and H: +2.0 mm (from interaural line). The guide cannula was secured to the skull using an instant adhesive, a dental cement, and an anchor piece. A stainless-steel dummy cannula, AD-12 (0.35 mm out. dia., EICOM), was then passed through the guide cannula and locked in position with a cap nut (EICOM). After the operation the rats were housed in individual cages and kept for at least 3 days for recuperation before starting the experiment.\nThe operated rat was anesthetized with pentobarbital 50 mg/kg i.p. and immobilized in dorsal position. After the bilateral jugular veins were exposed, 400 μl of blood was drawn using a 1 ml tuberculin syringe and a 24-G needle (both by Termo). To prevent clotting, the syringe was filled with 20 μl of saline containing 200 U/ml of heparin beforehand. The cap nut and dummy cannula were removed from the rat skull and, instead, a stainless steel microinjection cannula (0.17 mm in. dia., 0.35 mm out. dia., EICOM) connected to Teflon tube (50 cm long, 0.1 mm in. dia., 0.4 mm out. dia., EICOM) was inserted. The length of the microinjection cannula was adjusted beforehand so that its tip would be emergent from the guide cannula by 1 mm. One end of the Teflon tube was connected to a microsyringe pump and either PBS or 19P2-L31 dissolved in PBS was injected, in a total volume of 10 μl, into the third ventricle at a flow rate of 2.5 μl/min. After a standby time of 1 minute following infusion, the microinjection cannula was disconnected and the dummy cannula was reinstated and locked in position with a cap nut. Immediately before initiation of intraventricular administration and 10, 20, 30, 40, and 60 minutes after initiation of administration, 400 μl portions of blood were drawn from the jugular vein. Each blood sample was centrifuged (5,000 rpm, 10 min.) with a high-speed refrigerated microcentrifuge (MR-150, Tommy Seiko) and the supernatant (plasma) was recovered. The amounts of pituitary hormones [prolactin, luteinizing hormone (LH), adrenocorticotropic hormone (ACTH), thyroid-stimulating hormone (TSH), and growth hormone (GH)] in the plasma were respectively determined by radioimmunoassays.\nThe results were expressed as a mean±S.E.M. To test for significant difference between the group treated with 19P2-L31 dissolved in PBS and the control group treated with PBS alone, Student's t-test was used. According to the two-tailed test, p<0.05 was assumed to be the minimal level of significance."}, "[3]": {"test": "reserpine-induced hypothermia in mice", "type": "in vivo, ICR male mice", "settings": "lateral ventricle", "method": "The mature ICR male mice (weight at operation: about 35 g) were anesthetized by administration of pentobarbital (50 mg/kg, i.p.), and then fixed on stereotaxic apparatus. The skull of a said mouse was exposed, then a hole was made by dental drill for guide-cannulization into the left lateral ventricle. The tip of a stainless-steel guide-cannula (24 G, length: 5 mm) for drug injection to lateral ventricle, was inserted to the position of AP: +0.6 mm (from bregma), L: left 1 mm and H: −1 mm (from dura matter). The guide-cannula was fixed onto the skull with adhesive. The cannula-implanted mice were housed as described above and were used for measurements of body temperature at least 3 days after the operation. Reserpine (Apoplon; Daiichi Pharmaceutical) was administered to mice at a dose of 3 mg/kg, s.c., and after 15 hours, each mouse was placed in a cage for the measurement. Then a stainless-steel micro-injection cannula (30 G, length: 6 mm) was inserted into the guide-cannula. The micro-injection cannula was connected to a microsyringe pump with Teflon tube, and injection of PBS or a peptide dissolved in PBS lasted for 2 minutes at a speed of 1 μl/min. The micro-injection cannula was withdrawn after over a period of 2 minutes from end of injection, than the temperature in rectum was measured.\nThe results are expressed as a mean±S.E.M. Student's t test was used to determine the significance of differences between values from the mice treated with a peptide and the PBS-injected controls. For the purpose of this analysis, p<0.05 was assumed to be the minimal level of significance."}, "[4]": {"settings": "50 nmol into the third ventricle, anesthetized rats"}}, "note": "Where no end group is shown, it is not given here.", "data": [{"substance": "Ser-Arg-Ala-His-Gln-His-Ser-Met-Glu-Ile-Arg-Thr-Pro-Asp-Ile-Asn-Pro-Ala-Trp-Tyr-Ala-Gly-Arg-Gly-Ile-Arg-Pro-Val-Gly-Arg-Phe-NH2 (SRAHQHSMEIRTPDINPAWYAGRGIRPVGRF-NH2) [19P2-L31, synthetic ligand polypeptide]", "values": [{"measurement": "glucose-induced increase in plasma insulin concentration (first and second phase)", "setting": "[1]; 675 pmol/rat", "value": "partially inhibited"}, {"measurement": "glucose-induced increase in plasma insulin concentration (first and second phase)", "setting": "[1]; 2.25 nmol/rat", "value": "partially inhibited"}, {"measurement": "glucose-induced increase in plasma insulin concentration (first and second phase)", "setting": "[1]; 6.75 nmol/rat", "value": "partially inhibited"}, {"measurement": "glucose-induced increase in plasma insulin concentration (first and second phase)", "setting": "[1]; 67.5 nmol/rat", "value": "completely inhibited"}, {"measurement": "plasma ACTH", "setting": "[2]; [4]", "value": "none showed significant changes"}, {"measurement": "plasma LH", "setting": "[2]; [4]", "value": "none showed significant changes"}, {"measurement": "plasma TSH", "setting": "[2]; [4]", "value": "none showed significant changes"}, {"measurement": "plasma prolactin", "setting": "[2]; [4]", "value": "none showed significant changes"}, {"measurement": "plasma GH level", "setting": "[2]; 50 nmol into the third ventricle, anesthetized rats, 10, 30, and 40 minutes after administration, not statistically significant", "value": "Tendencies toward decrease"}, {"measurement": "plasma GH level", "setting": "[2]; 50 nmol into the third ventricle, anesthetized rats, 20 minutes after administration, versus control", "value": "significantly decreased"}, {"measurement": "plasma GH level", "setting": "[2]; 50 nmol into the third ventricle, anesthetized rats, 60 minutes after administration", "value": "no difference from the control group"}, {"measurement": "plasma growth hormone level", "setting": "[2]; injected into the third ventricle of rats, summary", "value": "depressed"}, {"measurement": "temperature variation versus PBS-injected control", "setting": "[3]; 1 nmol, reserpine-treated mice", "value": "no statistically significant difference"}, {"measurement": "body temperature lowered by reserpine", "setting": "[3]; 10 nmol, mice, 15 hours after reserpine 3 mg/kg s.c., versus PBS", "value": "increased significantly"}, {"measurement": "time of maximum increase of body temperature after administration", "setting": "[3]; 10 nmol, reserpine-treated mice", "value": 45, "unit": "min"}]}]}
